Patent US8883428B2, “Methods to determine atherosclerosis regression, plaque stabilization and cardiovascular risk” (The Regents of the University of California, priority 2009, dated 2014)

Legend:
[1] = OxPL/apoA in patients treated with JTT-705, then placebo; assay type: in vivo, human; conditions: nineteen patients; active treatment followed by placebo; FIG. 4
Description: Patients were then taken off the JTT-705 and placed on placebo. […] Add 50 μl/well. […] Leave at room temperature for 1-2 hours. Wash plate as above. […] Incubate at room temperature for 1 hour. Wash plate with cell washer set at 4 washes. […] Keep in the dark. Read in Chemiluminescence detector as relative light units (RLU). All assays are run in triplicate.

[2] = patients with coronary artery disease already on statins; measured before and after treatment; FIG. 3
Description: OxPL/apoA was then measured before and after the treatment.
Determine amount of OxPL on apoA1: Add an apo A-1 capture antibody such as Sheep anti-Human Apolipoprotein A-1 (The Binding Site, Birmingham, England) at 5-10 μg/ml to TBS buffer (or PBS) for overnight incubation at 4° C. Add 50 μl/well. The next day, wash plates with an automatic plate washer, 3 times 200 μl/well. Postcoat wells with 1% BSA/TBS@100 μl/well, 30-45 min, then wash before adding plasma. Add 50 μl plasma diluted to 1:50 in the appropriate well. For row “H” use 50 μl 1% BSA in TBS (Dilution buffer) as the blank. Leave at room temperature for 1-2 hours. Wash plate as above. Dilute the secondary antibody (biotinylated E06@1 μg/ml) and add 50 μl/well. After 1 hr at room temperature, wash plates as above. Prepare alkaline phosphatase labeled neutrAvidin (for biotin antibodies) or alkaline phosphatase labeled goat anti-rabbit IgG diluted in buffer containing activators (at 1:20 dilution. The activators keep the alkaline phosphatase antibodies consistent for months.) Add 50 μl to each well. Incubate at room temperature for 1 hour. Wash plate with cell washer set at 4 washes. Add 25 μl of detector for alkaline phosphatase, such as Lumi-phos 530 (keep sterile) diluted 1:1 in dist. water. Then leave at room temp. for 1.5-2 hr. Keep in the dark. Read in Chemiluminescence detector as relative light units (RLU). […]

| Compound | OxPL/apoA change during treatment [1] | OxPL/apoA change following treatment [2] |
| --- | --- | --- |
| CCC(CC)CC1(C(=O)Nc2ccccc2SC(=O)C(C)C)CCCCC1 [JTT-705] | increased during the active treatment |  |
| O=C(O)c1cccnc1 [niacin] |  | increased significantly |
